Experiments:
[1] = molecular target: T1, human PPARγ (Homo sapiens, UniProt P37231); assay: PPARγ ligand activity, GAL4-hPPARγ luciferase reporter assay in CV-1 cells; assay type: cell-based; details: for PPARγ ligand activity: 24 h, relative to non-treatment control (DMSO) = 100, average ± standard error
T1 construct: expressed in transfected cells; host or cells: CV-1 cells (African green monkey kidney)
T1 sequence (P37231 204-505): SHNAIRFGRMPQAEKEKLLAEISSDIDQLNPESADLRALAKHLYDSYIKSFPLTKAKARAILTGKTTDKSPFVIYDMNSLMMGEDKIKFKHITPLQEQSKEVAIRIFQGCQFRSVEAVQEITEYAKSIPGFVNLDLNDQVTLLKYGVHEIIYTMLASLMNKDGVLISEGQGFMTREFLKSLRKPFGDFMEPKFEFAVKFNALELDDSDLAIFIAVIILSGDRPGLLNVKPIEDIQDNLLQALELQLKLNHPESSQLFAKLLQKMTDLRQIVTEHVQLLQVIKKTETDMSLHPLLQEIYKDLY
Experimental: CV-1 cells (cultured cells derived from kidneys of male African green monkeys) were implanted on 24-well culture plates so as to be […] and cultured at 37° C. in 5% CO2 for 24 hours. As a medium, DMEM (Dulbecco's Modified Eagle Medium; manufactured by GIBCO) containing 10% FBS (fetal bovine serum) and a 10 mg/mL penicillin streptomycin solution was used. Using the Lipofectamine system (trade name; manufactured by Invitrogen Corporation), pM-hPPARγ and p4× UASg-tk-luc were transfected. The above-noted pM-hPPARγ was a chimeric protein-expression plasmid binding GAL4 gene (amino acid sequence 1-147) and human PPARγ ligand-binding site gene (amino acid sequence 204-505), whereas the above-noted p4× UASg-tk-luc was a reporter plasmid containing four copies of a responsive element (UAS) of GAL 4 upstream of a luciferase gene. About 24 hours after the transfection, samples of aurapten at respective concentrations (0.1, 1.0, 10, 50 and 100 μM) were added to the above-described media, followed by 24 hour incubation. The above-noted samples were prepared by dissolving aurapten in dimethyl sulfoxide (DMSO). Instead of the aurapten, DMSO was added to non-treated control media. After the incubation, measurement was made using a Dual-Luciferase Reporter Gene Assay system (trade name; manufactured by Promega Corporation).
Similarly to the measurement group, as a control group, pM (a plasmid from which PPARγ ligand-binding site gene was removed) was used for measurement instead of pM-hPPARγ. For each sample, the ratio between average luminescence intensities of the measurement group and the control group (n=4) (measurement group/control group) was calculated, and an activity relative to the non-treatment control was determined as the PPARγ ligand activity of the sample.

[2] = tested on: adiponectin secretion in 3T3-L1 cells; assay: adiponectin secretion amount of 3T3-L1 adipocytes by ELISA; assay type: cell-based; details: for Adiponectin secretion amount: 3T3-L1 medium supernatant 7 days after differentiation induction, non-treatment control 3.49 ± 0.78, average ± standard error
Experimental: Next, culture preadipocytes 3T-L1 were thawed, inoculated in a 100 mm dish and cultured until 3T3-L 1 cells reached about 80% confluence. A single dish of 3T3-L1 that had reached about 80% confluence was subcultured to a single 6-well plate and further cultured until the 3T3-L1 cells reached confluence in the 6-well plate, and then the medium was replaced with the differentiation induction medium, followed by differentiation induction. 48 hours later, the medium was replaced with the differentiation promotion medium, and thereafter, the medium was replaced with the differentiation promotion medium every two days. 7 days after the initiation of the differentiation induction, mRNA was extracted using Sepasol(R)—RNA I super (manufactured by Nacalai Tesque, Inc.), and the mRNA expression amounts of 36B4, aP2 and adiponectin, which were indicators of an early period of adipocyte differentiation, were measured using Light Cycler™. Also, the medium 7 days after the differentiation induction was taken in an amount of 1 mL from each well, and the amount of adiponectin in the medium supernatant was measured using a mouse/rat adiponectin ELISA kit (trade name) (manufactured by Otsuka Pharmaceutical Co., Ltd.). […]
Only the strips of the antibody plates necessary for the analysis were taken out. […] 100 μL of the standard solutions with respective concentrations and 100 μL of the diluted analytes were added to individual wells and measured in duplicate. Incidentally, the standard solutions always were measured for each measurement and each plate. […] After 100 μL of the substrate solution was added to each well of the antibody plate and allowed to stand still for reaction for 15 minutes at room temperature, 100 μL of the reaction stop solution was added to each well of the antibody plate, and then the absorbance at 450 nm in each well was measured with a plate reader.

CC(C)=CCC/C(C)=C/COc1ccc2ccc(=O)oc2c1 [Aurapten, aurapten] was tested, and the “effect on PPARγ activity (in words)” value ([1]; 0.1-100 μM, increased along with the concentration) was “improved the activity of PPARγ”, the PPARγ ligand activity ([1]; aurapten 0.1 μM) was 128 ± 8.5 and the PPARγ ligand activity ([1]; aurapten 1.0 μM) was 113 ± 6.9. The PPARγ ligand activity ([1]; aurapten 10 μM) was 146 ± 17.0, the PPARγ ligand activity ([1]; aurapten 50 μM) was 245 ± 56.1 and the PPARγ ligand activity ([1]; aurapten 100 μM) was 641 ± 84.2. The Adiponectin secretion amount ([2]; aurapten 1 μM) was 3.64 ± 0.82, the Adiponectin secretion amount ([2]; aurapten 5 μM) was 4.69 ± 0.16 and the “effect on adiponectin secretion in adipocytes (in words)” value ([2]; compared with non-treated control medium) was “enhance the secretion of adiponectin”.

Source: patent US8802723B2, “Metabolic syndrome-improving agent and medicine, supplement, functional food and food additive containing the same” (ARKRAY, Inc., priority 2005, dated 2014)
